pIC50: −log10 of the molar value.
Target: T1, ULK1 (Homo sapiens, UniProt O75385)
T1 construct: purchased Promega V3521
T1 sequence (O75385 1-1050): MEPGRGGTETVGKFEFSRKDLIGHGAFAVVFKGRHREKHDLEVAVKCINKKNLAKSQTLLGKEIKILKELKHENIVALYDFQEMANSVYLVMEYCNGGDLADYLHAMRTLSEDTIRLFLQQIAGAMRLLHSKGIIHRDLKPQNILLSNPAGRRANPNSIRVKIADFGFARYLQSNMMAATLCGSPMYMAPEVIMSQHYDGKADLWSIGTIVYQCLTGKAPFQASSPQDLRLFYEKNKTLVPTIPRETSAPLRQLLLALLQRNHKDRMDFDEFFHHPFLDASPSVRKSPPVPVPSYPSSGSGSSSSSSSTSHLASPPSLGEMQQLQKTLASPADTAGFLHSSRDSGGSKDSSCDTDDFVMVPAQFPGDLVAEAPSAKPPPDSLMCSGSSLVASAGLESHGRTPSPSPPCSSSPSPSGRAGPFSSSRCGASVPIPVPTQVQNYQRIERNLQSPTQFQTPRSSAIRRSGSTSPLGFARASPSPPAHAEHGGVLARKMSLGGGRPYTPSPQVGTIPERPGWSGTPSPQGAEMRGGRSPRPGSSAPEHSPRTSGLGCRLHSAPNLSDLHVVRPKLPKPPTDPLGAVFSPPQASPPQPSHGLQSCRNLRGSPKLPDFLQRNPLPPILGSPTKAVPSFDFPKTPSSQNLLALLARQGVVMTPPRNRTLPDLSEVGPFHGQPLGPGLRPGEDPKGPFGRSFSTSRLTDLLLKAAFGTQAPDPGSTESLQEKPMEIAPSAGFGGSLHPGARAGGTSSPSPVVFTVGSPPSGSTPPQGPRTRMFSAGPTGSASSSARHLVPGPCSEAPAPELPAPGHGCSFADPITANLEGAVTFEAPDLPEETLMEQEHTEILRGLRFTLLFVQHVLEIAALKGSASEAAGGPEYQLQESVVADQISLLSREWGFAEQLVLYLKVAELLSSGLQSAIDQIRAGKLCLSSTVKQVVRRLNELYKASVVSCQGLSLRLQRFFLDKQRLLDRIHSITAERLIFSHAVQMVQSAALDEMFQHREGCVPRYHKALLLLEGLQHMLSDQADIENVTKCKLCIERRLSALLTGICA
Assay: Inhibition of ULK1 protein activity (phosphorylation function), ADP-Glo method
Assay type: biochemical
Protocol: In this experiment, the inhibitory effect of a compound on the phosphorylation function of ULK1 was detected by ADP-Glo method. The inhibitory effect of the compound of the present disclosure on the ULK1 target was evaluated based on IC50.
Compound formulation: Using an ECHO (Beckman, ECHO650), the compound was serially diluted 3-fold in DMSO in a 384-well plate (PE, 6007290). A total of 10 concentration points were set, with the maximum concentration of the compound being 10 µM, and 50 nL per well. Positive control wells and negative control wells were added with 50 nL DMSO, respectively.
Reaction process: A 32 nM of ULK1 (Promega, V3521) solution was formulated, and 2.5 µL/well was transferred to the compound test wells and the negative control wells (NC). 2.5 µL/well of 1× Assay buffer was added to the positive control wells (PC). A mixed solution of 100 µM of ATP and 1.86 µM of MBP was formulated, and 2.5 µL/well was transferred to the reaction plate. After centrifugation, the reaction was initiated and incubated at room temperature for 60 min. After the reaction was completed, 5 µL/well of ADP-Glo Reagent (Promega, V9102) was added to the reaction plate. After centrifugation, the reaction was incubated at room temperature for 40 minutes. Finally, 10 µL/well of Kinase Detection Buffer was added, followed by centrifugation and incubation at room temperature for 30 min. The chemiluminescence value was read using Envision (PE, Envision2105).
Assay buffer: a reaction buffer; and Kinase Detection buffer: a detection buffer, both were taken from the ADP-Glodetection kit, purchased from Promega, model V9102.
The inhibition ratio of a compound on ULK1 activity was calculated using the following formula: [formula]
The dose-effect curve was fitted using the log(inhibitor) vs. response -Variable slope of the analysis software GraphPad Prism 8, thereby affording the IC50 value of each compound for enzyme activity.

CN1CCN2c3ccc(Nc4ncc(C(F)(F)F)c(N5CCN(C)C(=O)C5)n4)cc3COCC2C1 (centres unmarked) [Compound 1]
pIC50: 6.00 to 7.00

CN1CCN2c3ccc(Nc4ncc(C(F)(F)F)c(N5CCC6(CCN(C)C6)CC5)n4)cc3COCC2C1 (centres unmarked) [Compound 2]
pIC50: > 7.00

CN1CCN2c3ccc(Nc4ncc(C(F)(F)F)c(OCCCN5CCCCC5=O)n4)cc3COCC2C1 (centres unmarked) [Compound 3]
pIC50: > 7.00

CN1CCN2c3ccc(Nc4ncc(C(F)(F)F)c(N5CCC(n6cccn6)CC5)n4)cc3COCC2C1 (centres unmarked) [Compound 4]
pIC50: > 7.00

CN1CCN2c3ccc(Nc4ncc(C(F)(F)F)c(N5CCC6(CCN(C)C6)C5)n4)cc3COCC2C1 (centres unmarked) [Compound 5]
pIC50: > 7.00

CN1CCN2c3ccc(Nc4ncc(C(F)(F)F)c(N[C@H]5CC[C@@H](n6cccn6)CC5)n4)cc3COCC2C1 (some centres unmarked) [Compound 6]
pIC50: > 7.00

CN1CCN2c3ccc(Nc4ncc(C(F)(F)F)c(NCCCn5cccn5)n4)cc3COCC2C1 (centres unmarked) [Compound 8]
pIC50: > 7.00

CN1CCN2c3ccc(Nc4ncc(C(F)(F)F)c(OCCCc5ccccc5C#N)n4)cc3COCC2C1 (centres unmarked) [Compound 9]
pIC50: > 7.00

CN1CCN2c3ccc(Nc4ncc(C(F)(F)F)c(NCCCN5CCCCC5=O)n4)cc3COCC2C1 (centres unmarked) [Compound 11]
pIC50: > 7.00

CN1CCN2c3ccc(Nc4ncc(C(F)(F)F)c(OCCCN5CCCCC5=O)n4)cc3OCC2C1 (centres unmarked) [Compound 12]
pIC50: > 7.00

CN1CCN2c3ccc(Nc4ncc(C(F)(F)F)c(N5CC6(CCN(C)C6)C5)n4)cc3COCC2C1 (centres unmarked) [Compound 20]
pIC50: > 7.00

CN1CCN2c3ccc(Nc4ncc(C(F)(F)F)c(NC5CCN(C(=O)C6CCC6)CC5)n4)cc3COCC2C1 (centres unmarked) [Compound 21]
pIC50: > 7.00

CN1CCN2c3ccc(Nc4ncc(C(F)(F)F)c(N5CC6(CN(C)C6)C5)n4)cc3COCC2C1 (centres unmarked) [Compound 22]
pIC50: > 7.00

CN1CCN2c3ccc(Nc4ncc(C(F)(F)F)c(OCCCn5cccn5)n4)cc3COCC2C1 (centres unmarked) [Compound 23]
pIC50: > 7.00

From patent publication EP4778931A1, “ULK1 INHIBITOR, PREPARATION METHOD THEREFOR AND USE THEREOF” (Dovetree Medicines Unus, Inc., priority 2023, dated 2025)
